# Experimental data from patent US20260217688A1, “INHIBITORS OF JAK2” (Llydaw Therapeutics, Inc., priority 2022, published 2026).
# Experiments:
# [1] = target: T1, JAK2 JH2 (Homo sapiens, UniProt O60674); experiment: JAK2 JH2 TR-FRET Assay; format: binding; details: JAK2 JH2 1 nM, Tracer ZE84-0003 10 nM
# T1 construct: Enzyme: JAK2 JH2, His-Avi-Tag, Biotin-Labeled (BPS Bioscience, Cat #79074) 1 nM; His; purchased BPS Bioscience 79074
# Description: Assay Buffer 1×: • 20 mM HEPES pH 7.2-7.4; • 10 mM MgCl2; • 0.015% Brij-35; • 2 mM DTT; • 0.05 mg/ml BSA.
# Final assay concentrations: • DMSO: 0.25%; • Streptavidin Tb-cryptate (Cisbio, Cat #610SATLB) 0.2 nM; • Enzyme: JAK2 JH2, His-Avi-Tag, Biotin-Labeled (BPS Bioscience, Cat #79074) 1 nM; • Probe: Tracer ZE84-0003 (ChemRar) 10 nM.
# Materials: • Reaction plate: ProxiPlate-384 Plus White Plate (PerkinElmer); • Dilution plate: Diamond Well Plate (Axygen, Cat #P-384-120 SQ-C-S); • Compounds plate: Diamond Well Plate (Axygen, Cat #P-384-120 SQ-C-S).
# Assay protocol: • 1. Prepare 400× solutions of compounds in DMSO into Compounds plate; • 2. Prepare Dilution plate: add 39 μL of 1× Assay buffer per well of Dilution plate; • 3. Prepare 2×Tb-cryptate mix in 1× Assay buffer. Add 10 μL of 2×Tb-cryptate mix to K-(Tb-cryptate and Probe without Enzyme) wells and blank (Tb-cryptate without Probe and Enzyme) wells; • 4. Add JAK2 JH2 into the rest of 2×Tb-cryptate mix to make 2×JAK2 JH2+Tb-cryptate mix. Add 10 μL per well into Reaction plate; • 5. Centrifuge plate at 200 g for 1 min; • 6. Dilute 1 μL of 400× compounds in 39 μL 1× Assay buffer in Dilution plate; • 7. Add 2 μL of 10× compounds from Dilution plate to Reaction plate with 10 μL of JAK2 JH2+Tb-cryptate mix; • 8. Centrifuge plate at 200 g for 1 min; • 9. Pre-incubate Reaction plate with compounds 15 min; • 10. Prepare 2.5× Tracer mix; • 11. Add 8 μL of 2.5× Tracer mix into appropriate wells of Reaction plate; • 12. Centrifuge plate at 800 g for 3 min; • 13. Incubate at rt for 15 min; • 14. Measure Fluorescence using Microplate Reader (Ex: TR, Em1/Em2: 482/520). The results of this assay are shown in the Table B. The values of EC50 shown as a letters A-D, where: A≤0.01 μM; 0.01 μM<B≤0.05 μM; 0.05 μM<C≤0.1 μM; D>0.1.
# [2] = Proliferation inhibition assay (CellTiter-Glo), Ba/F3 JAK2 wt; format: cell-based; details: mouse, Ba/F3 (JAK2 wt) cells
# Description: (§1) Ba/F3 (JAK2 wt) (ABM, T3076) cells and Ba/F3 (JAK2 V617F) (WuXi AppTec) cells were grown in RPMI-1640 (Gibco, cat. number 21870) supplemented with 10% FBS (Hyclone Laboratories Inc, Cat #SV30160.03), 1× Antibiotic-antimycotic (Gibco, Cat #15240-062), 2× Sodium pyruvate (Paneco, cat #F023), 2× Essential amino acids (Paneco, cat #F115/100), 1× Non-Essential amino acids (Paneco, cat #F116) at 37° C. in 5% CO2 atmosphere.
# (§2) For the proliferation inhibition assay Ba/F3 (JAK2 wt) and Ba/F3 (JAK2 V617F) cells were seeded into a CellBIND® 384-well Flat Clear Bottom Black Polystyrene Microplates (Corning, USA, Cat #3770) at a density of 4000 cells per well in complete culture medium with or without 10 ng/ml rmIL-3 (RD systems, USA, Cat #403-ML-025) using Biomek FX/NX (384) liquid handler, 45 μl of cell suspension in complete culture medium per well. 500× compound's stocks in DMSO (Sigma Cat #D2650) were prepared in compounds plate (Diamond Well Plate, Axigen, Cat #P-384-120 SQ-C-S) applying Biomek 2000. 1 μl of 500× compounds stock was added to 49 μl of complete culture medium into Dilution plate (Diamond Well Plate, Axigen, Cat #P-384-120 SQ-C-S), mixed and then 5 μl of 10× compounds solution was transferred to cells using Biomek FX/NX (384) liquid handler. The centrifugation at 100 g for 1 min at Eppendorf 5810 followed. Final DMSO concentration in assay was 0.2%. All treatments were performed in technical and biological duplicates. Treated cells were incubated for 72 h at 37° C. with 5% CO2.
# (§3) After 3 days of incubation, CellTiter-Glo Luminescent Cell Viability Assay (Promega) was performed. 10 μl of CellTiter-Glo (Promega, CAT #G7572) was added to the cells using Biomek FX/NX (384) liquid handler. The assay plate was centrifuged at 100 g for 1 min and luminescence signal was measured using Microplate Reader (CLARIOStar).
# [3] = Proliferation inhibition assay (CellTiter-Glo), Ba/F3 JAK2 V617F; format: cell-based; details: mouse, Ba/F3 (JAK2 V617F) cells; with 10 ng/ml rmIL-3, 72 h; read-out: Ba/F3 JAK2 V617F + IL3, CC50 3 days
# Description: as §1, §2, §3
# [4] = test system: Ba/F3 (JAK2 V617F) cells; experiment: as above; format: cell-based; details: Mus musculus, BaF3; without IL3, 72 h; read-out: Ba/F3 JAK2 V617F, CC50 3 days
# Description: as §1, §2, §3
# [5] = with 10 ng/ml rmIL-3, 72 h, read-out: Ba/F3 JAK2 wt + IL3, CC50 3 days
# [6] = without IL3, 72 h, read-out: Ba/F3 JAK2 wt, CC50 3 days
# T1 sequence (O60674 545-809 limits assumed): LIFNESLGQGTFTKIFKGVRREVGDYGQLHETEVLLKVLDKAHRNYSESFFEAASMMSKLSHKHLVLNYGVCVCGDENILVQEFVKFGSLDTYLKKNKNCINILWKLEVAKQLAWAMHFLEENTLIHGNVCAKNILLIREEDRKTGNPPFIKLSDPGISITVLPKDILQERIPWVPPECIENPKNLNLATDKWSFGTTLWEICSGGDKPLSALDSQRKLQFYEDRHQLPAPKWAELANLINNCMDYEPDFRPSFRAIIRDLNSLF
SMILES,EC50 [1],"CC50 at 72 h [2, 5]","CC50 at 72 h [2, 6]",CC50 at 72 h [3],CC50 [4]
"CCCCCCn1cc(Nc2ncc(C(N)=O)c(Nc3cccc(-c4ncn(C)n4)c3OC)n2)cn1 [Compound 26, 2-[(1-hexylpyrazol-4-yl)amino]-4-[2-methoxy-3-(1-methyl-1,2,4-triazol-3-yl)anilino]pyrimidine-5-carboxamide]",0.01 to 0.05 µM,5 to 10 µM,5 to 10 µM,0.5 to 1 µM,≤ 0.5 µM
"COc1c(Nc2nc(Nc3cnn(CCN(CC(C)C)CC(C)C)c3)ncc2C(N)=O)cccc1-c1ncn(C)n1 [Compound 29, 2-(1-(2-(Diisobutylamino)ethyl)-1H-pyrazol-4-ylamino)-4-(2-methoxy-3-(1-methyl-1H-1,2,4-triazol-3-yl)phenylamino)pyrimidine-5-carboxamide]",> 0.1 µM,5 to 10 µM,1 to 5 µM,1 to 5 µM,≤ 0.5 µM
"COc1c(Nc2nc(Nc3cnn(C4CCOCC4)c3)ncc2C(N)=O)cccc1-c1ncn(C)n1 [Compound 14, 4-[2-methoxy-3-(1-methyl-1,2,4-triazol-3-yl)anilino]-2-[(1-tetrahydropyran-4-ylpyrazol-4-yl)amino]pyrimidine-5-carboxamide]",≤ 0.01 µM,> 10 µM,> 10 µM,5 to 10 µM,≤ 0.5 µM
"COc1c(Nc2nc(Nc3cnn(C)c3)ncc2C(N)=O)cccc1-c1nc2ccccc2o1 [Compound 12, 4-[3-(1,3-benzoxazol-2-yl)-2-methoxy-anilino]-2-[(1-methylpyrazol-4-yl)amino]pyrimidine-5-carboxamide]",0.01 to 0.05 µM,> 10 µM,> 10 µM,1 to 5 µM,≤ 0.5 µM
"COc1c(Nc2nc(Nc3cnn(-c4ccccc4)c3)ncc2C(N)=O)cccc1-c1ncn(C)n1 [Compound 6, 4-((2-Methoxy-3-(1-methyl-1H-1,2,4-triazol-3-yl)phenyl)amino)-2-((1-phenyl-1H-pyrazol-4-yl)amino)pyrimidine-5-carboxamide]",0.01 to 0.05 µM,> 10 µM,> 10 µM,≤ 0.5 µM,≤ 0.5 µM
"COc1c(Nc2nc(Nc3cnn(C(C)C)c3)ncc2C(N)=O)cccc1-c1nc2ccccc2o1 [Compound 16, 4-[3-(1,3-benzoxazol-2-yl)-2-methoxy-anilino]-2-[(1-isopropylpyrazol-4-yl)amino]pyrimidine-5-carboxamide]",0.01 to 0.05 µM,5 to 10 µM,> 10 µM,0.5 to 1 µM,≤ 0.5 µM
"COc1c(Nc2nc(Nc3cnn(CC4CCCCC4)c3)ncc2C(N)=O)cccc1-c1ncn(C)n1 [Compound 22, 2-[[1-(cyclohexylmethyl)pyrazol-4-yl]amino]-4-[2-methoxy-3-(1-methyl-1,2,4-triazol-3-yl)anilino]pyrimidine-5-carboxamide]",0.01 to 0.05 µM,5 to 10 µM,5 to 10 µM,1 to 5 µM,≤ 0.5 µM
"COc1c(Nc2nc(Nc3cnn(C)c3)ncc2C(N)=O)cccc1-c1nnc(C)o1 [Compound 3, 4-[2-methoxy-3-(5-methyl-1,3,4-oxadiazol-2-yl)anilino]-2-[(1-methylpyrazol-4-yl)amino]pyrimidine-5-carboxamide]",0.01 to 0.05 µM,> 10 µM,> 10 µM,> 10 µM,5 to 10 µM
"COc1c(Nc2nc(Nc3cnn(CCC(C)C)c3)ncc2C(N)=O)cccc1-c1ncn(C)n1 [Compound 24, 2-[(1-isopentylpyrazol-4-yl)amino]-4-[2-methoxy-3-(1-methyl-1,2,4-triazol-3-yl)anilino]pyrimidine-5-carboxamide]",0.01 to 0.05 µM,5 to 10 µM,> 10 µM,0.5 to 1 µM,≤ 0.5 µM
"COc1c(Nc2nc(Nc3c(C)nn(C)c3C)ncc2C(N)=O)cccc1-c1ncn(C)n1 [Compound 17, 4-[2-methoxy-3-(1-methyl-1,2,4-triazol-3-yl)anilino]-2-[(1,3,5-trimethylpyrazol-4-yl)amino]pyrimidine-5-carboxamide]",> 0.1 µM,> 10 µM,> 10 µM,> 10 µM,> 10 µM
"COc1c(Nc2nc(Nc3cnn(C4CCCCC4)c3)ncc2C(N)=O)cccc1-c1ncn(C)n1 [Compound 11, 2-[(1-cyclohexylpyrazol-4-yl)amino]-4-[2-methoxy-3-(1-methyl-1,2,4-triazol-3-yl)anilino]pyrimidine-5-carboxamide]",≤ 0.01 µM,1 to 5 µM,1 to 5 µM,≤ 0.5 µM,≤ 0.5 µM
"COc1c(Nc2nc(Nc3cnn(CCCN(C)C)c3)ncc2C(N)=O)cccc1-c1ncn(C)n1 [Compound 28, 2-[[1-[3-(dimethylamino)propyl]pyrazol-4-yl]amino]-4-[2-methoxy-3-(1-methyl-1,2,4-triazol-3-yl)anilino]pyrimidine-5-carboxamide]",> 0.1 µM,> 10 µM,> 10 µM,> 10 µM,5 to 10 µM
"COc1c(Nc2nc(Nc3cnn(C4CCNCC4)c3)ncc2C(N)=O)cccc1-c1nc2ccccc2o1 [Compound 8, 4-[3-(1,3-benzoxazol-2-yl)-2-methoxy-anilino]-2-[[1-(4-piperidyl)pyrazol-4-yl]amino]pyrimidine-5-carboxamide]",≤ 0.01 µM,> 10 µM,> 10 µM,5 to 10 µM,1 to 5 µM
"COc1c(Nc2nc(Nc3cnn(C(C)C)c3)ncc2C(N)=O)cccc1-c1ncn(C)n1 [Compound 4, 2-((1-Isopropyl-1H-pyrazol-4-yl)amino)-4-((2-methoxy-3-(1-methyl-1H-1,2,4-triazol-3-yl)phenyl)amino)pyrimidine-5-carboxamide]",≤ 0.01 µM,5 to 10 µM,5 to 10 µM,1 to 5 µM,≤ 0.5 µM
"COc1c(Nc2nc(Nc3cnn(C45CC6CC(CC(C6)C4)C5)c3)ncc2C(N)=O)cccc1-c1ncn(C)n1 [Compound 30, 2-((1-(1-Adamantyl)-1H-pyrazol-4-yl)amino)-4-((2-methoxy-3-(1-methyl-1H-1,2,4-triazol-3-yl)phenyl)amino)pyrimidine-5-carboxamide]",0.01 to 0.05 µM,1 to 5 µM,1 to 5 µM,0.5 to 1 µM,≤ 0.5 µM
